Molecules are shown by their SMILES. Some results are limits rather than exact numbers.

A word on the EC50: it is the concentration giving half of the maximal effect.

The target in test [1] is TLR2 (Homo sapiens, UniProt O60603). The test can be described thus: TLR2 agonist screening assay, HEK-Blue TLR2 reporter cell line (NF-kB-driven SEAP, absorbance at 600 nm). The conditions noted are these: HEK-Blue TLR2 reporter cells, agonist mode; average of all runs (Table 4). Also on record: host or cells: HEK-293 (HEK-Blue TLR2 reporter cell line). The format is cell-based. Put shortly:
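EC50 values come from dilution series of agonist on TLR2-transfected HEK-293 reporter cells carrying an NF-kB-SEAP construct. Cells sat overnight with compound in substrate-containing Detection medium at 1% DMSO, and secreted phosphatase activity was quantified as absorbance at 600 nm.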

Test [2] addresses T1, TLR2 (Mus musculus, UniProt Q9QUN7).
T1 construct: endogenous in cells; host or cells: RAW 264.7
The test can be described thus: TLR2 functional assay, cytokine release from RAW 264.7 mouse macrophage cell line. Format: cell-based. The conditions noted are these: average of all runs. The procedure: Cells of the immune system respond to TLR agonists in part by secreting cytokines. Functional assays for TLR2 agonists measure cytokine release from purified immune cells or immortalized cell lines derived from immune cells. Cytokine release is measured by standard ELISA approaches or multiplexed analysis using the Meso Scale Discovery (MSD) platform.
Purified primary human peripheral blood mononuclear cells or RAW 264.7 mouse macrophage cell line cells are plated at approximately 40,000 cells per well. Cells are treated with agonist compounds and assays 6-24 hours post-treatment for cytokines released into the cell culture media.
Following assay measurements utilizing either HEK-Blue detection or cytokine release, all data is analyzed with the GraphPad Prism8 statistical package to determine EC50, binding and activity metrics for the TLR2 modulators.
Numerous cell lines derived from various cell types can respond to TLR2 agonists with stereotyped cytokine and chemokine secretion. In particular, cell lines derived from macrophages respond robustly to TLR2 agonists by secreting a wide array of cytokines, including (but not limited to) TNF-alpha, IL-1, IL-10 and IL-12. The human monocytic cell line THP-1, the mouse macrophage line RAW-264.7, and the rat macrophage line NR8383 were used. For each assay, the respective cell lines were plated into 96-well plates overnight and then treated the following day with various TLR2-engaging compounds at varying concentrations. The next day, supernatants were collected and assayed by multiplex immunodetection for cytokines released (MSD detection kits for respective species).
Data provided in Table 5 is generated using protocols described in Example 45 and 46.

Sequence of TLR2 (Homo sapiens, UniProt O60603) (O60603 21-784): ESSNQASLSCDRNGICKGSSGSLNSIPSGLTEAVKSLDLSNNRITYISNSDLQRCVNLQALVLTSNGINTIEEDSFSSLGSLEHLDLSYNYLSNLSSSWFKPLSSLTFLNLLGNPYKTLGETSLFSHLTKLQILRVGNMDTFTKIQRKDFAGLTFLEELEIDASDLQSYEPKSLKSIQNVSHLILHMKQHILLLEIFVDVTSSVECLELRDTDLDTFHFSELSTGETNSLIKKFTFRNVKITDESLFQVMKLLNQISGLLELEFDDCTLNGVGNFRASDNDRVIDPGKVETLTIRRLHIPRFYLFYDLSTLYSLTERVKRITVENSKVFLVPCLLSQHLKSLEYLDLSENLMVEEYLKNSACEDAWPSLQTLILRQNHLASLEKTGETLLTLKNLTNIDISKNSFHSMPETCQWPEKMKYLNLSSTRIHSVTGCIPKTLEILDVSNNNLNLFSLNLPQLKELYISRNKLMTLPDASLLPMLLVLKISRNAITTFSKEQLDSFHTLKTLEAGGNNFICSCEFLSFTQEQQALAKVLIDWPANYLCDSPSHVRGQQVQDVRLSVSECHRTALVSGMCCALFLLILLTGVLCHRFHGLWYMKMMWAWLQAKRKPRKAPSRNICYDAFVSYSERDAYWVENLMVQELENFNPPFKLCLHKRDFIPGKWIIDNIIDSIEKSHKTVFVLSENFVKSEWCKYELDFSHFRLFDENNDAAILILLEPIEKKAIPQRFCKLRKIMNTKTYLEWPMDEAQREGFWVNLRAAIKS
T1 sequence (Q9QUN7 25-784): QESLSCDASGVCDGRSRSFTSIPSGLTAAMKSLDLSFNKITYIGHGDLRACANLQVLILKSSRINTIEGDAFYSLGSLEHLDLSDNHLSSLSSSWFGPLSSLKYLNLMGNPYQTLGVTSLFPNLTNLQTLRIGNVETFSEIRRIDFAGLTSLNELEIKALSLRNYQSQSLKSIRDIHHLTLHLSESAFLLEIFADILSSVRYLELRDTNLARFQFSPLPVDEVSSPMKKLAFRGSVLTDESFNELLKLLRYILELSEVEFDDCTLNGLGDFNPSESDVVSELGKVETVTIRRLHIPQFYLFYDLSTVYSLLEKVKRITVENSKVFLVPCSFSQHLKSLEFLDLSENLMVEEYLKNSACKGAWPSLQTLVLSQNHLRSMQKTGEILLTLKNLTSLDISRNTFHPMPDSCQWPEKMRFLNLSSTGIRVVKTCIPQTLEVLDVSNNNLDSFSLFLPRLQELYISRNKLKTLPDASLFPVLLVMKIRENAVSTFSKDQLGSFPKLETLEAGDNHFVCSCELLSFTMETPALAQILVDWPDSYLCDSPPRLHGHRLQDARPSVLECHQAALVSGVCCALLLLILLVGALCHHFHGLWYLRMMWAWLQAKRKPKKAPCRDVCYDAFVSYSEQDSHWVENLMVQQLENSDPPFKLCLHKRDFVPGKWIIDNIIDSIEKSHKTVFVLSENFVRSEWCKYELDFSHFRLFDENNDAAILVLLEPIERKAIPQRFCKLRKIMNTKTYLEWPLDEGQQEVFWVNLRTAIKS

As for `CCCCCCCNC(=O)N[C@@H](CNC(=O)c1ccc(C(=O)N2C[C@@H](C(=O)N[C@H]3C[C@@H]3c3ccccc3)[C@H](C(=O)N[C@H]3C[C@@H]3c3ccccc3)C2)cc1)C(=O)NCCCCCC` [Compound 181, (3S,4S)-1-(4-(((S)-2-(3-heptylureido)-3-(hexylamino)-3-oxopropyl)carbamoyl)benzoyl)-N3,N4-bis ((1S,2R)-2-phenylcyclopropyl) pyrrolidine-3,4-dicarboxamide], the 50% effective concentration (EC50) is 0.1 to 50 nM on TLR2 [1] and above 1000 nM on TLR2 [2].
In the same order, the values of `CCCCCCCCCCCCNC(=O)N[C@@H]1CCCN(C(=O)c2ccc(C(=O)N3C[C@@H](C(=O)N[C@H]4C[C@@H]4c4ccccc4)[C@H](C(=O)N[C@H]4C[C@@H]4c4ccccc4)C3)cc2)C1` [Compound 204, (3S,4S)-1-(4-((R)-3-(3-dodecylureido)piperidine-1-carbonyl)benzoyl)-N3,N4-bis((1S,2R)-2-phenylcyclopropyl)pyrrolidine-3,4-dicarboxamide] are 0.1 to 50 nM and above 1000 nM.
The like results for `CCCCCCNC(=O)[C@H](CNC(=O)c1ccc(C(=O)N2C[C@@H](C(=O)N[C@H]3C[C@@H]3c3ccccc3)[C@H](C(=O)N[C@H]3C[C@@H]3c3ccccc3)C2)cc1)NC(=O)Cc1ccc(F)cc1` [Compound 138, (3S,4S)-1-(4-(((S)-2-(2-(4-fluorophenyl)acetamido)-3-(hexylamino)-3-oxopropyl)carbamoyl)benzoyl)-N3,N4-bis((1S,2R)-2-phenylcyclopropyl) pyrrolidine-3,4-dicarboxamide] were, in that order, 0.1 to 50 nM and above 1000 nM.
For `CCCCCCCCCCCCCNC(=O)N[C@H]1CN(C(c2ccc(C(=O)N3C[C@@H](C(=O)N[C@H]4C[C@@H]4c4ccccc4)[C@H](C(=O)N[C@H]4C[C@@H]4c4ccccc4)C3)cc2)C(F)(F)F)C[C@@H]1OC` (stereo partly drawn) [Compound 189, (3S,4S)—N3,N4-bis((1S,2R)-2-phenylcyclopropyl)-1-(4-(2,2,2-trifluoro-1-((3S,4S)-3-methoxy-4-(3-tridecylureido)pyrrolidin-1-yl)ethyl)benzoyl)pyrrolidine-3,4-dicarboxamide], the values for the EC50 on TLR2 [1] and at TLR2 [2] were 0.1 to 50 nM and 351 to 1000 nM, respectively.
In the same order, the values of `CCCCCCCCCCCCCNC(=O)N[C@H]1CN(C(=O)c2ccc(C(=O)N3C[C@@H](C(=O)N[C@H]4C[C@@H]4c4ccccc4)[C@H](C(=O)N[C@H]4C[C@@H]4c4ccccc4)C3)cc2)C[C@@H]1OC` [Compound 134, (3S,4S)-1-(4-((3S,4S)-3-methoxy-4-(3-tridecylureido)pyrrolidine-1-carbonyl)benzoyl)-N3,N4-bis((1S,2R)-2-phenylcyclopropyl)pyrrolidine-3,4-dicarboxamide] are 0.1 to 50 nM and 351 to 1000 nM.
In the same order, the values of `CCCCCCCCNC(=O)N[C@@H](Cn1cc(-c2ccc(C(=O)N3C[C@@H](C(=O)N[C@H]4C[C@@H]4c4ccccc4)[C@H](C(=O)N[C@H]4C[C@@H]4c4ccccc4)C3)cc2)nn1)C(=O)NCCCCCC` [Compound 221, (3S,4S)-1-(4-(1-((S)-3-(hexylamino)-2-(3-octylureido)-3-oxopropyl)-1H-1,2,3-triazol-4-yl)benzoyl)-N3,N4-bis((1S,2R)-2-phenylcyclopropyl)pyrrolidine-3,4-dicarboxamide] are 0.1 to 50 nM and 0.1 to 50 nM.
The like results for `CCCCCCCCCCCCNC(=O)N[C@H]1CN(C(=O)c2ccc(C(=O)N3C[C@@H](C(=O)N[C@H]4C[C@@H]4c4ccccc4)[C@H](C(=O)N[C@H]4C[C@@H]4c4ccccc4)C3)cc2)C[C@@H]1OC` [Compound 188, (3S,4S)-1-(4-((3S,4S)-3-(3-dodecylureido)-4-methoxypyrrolidine-1-carbonyl)benzoyl)-N3,N4-bis((1S,2R)-2-phenylcyclopropyl)pyrrolidine-3,4-dicarboxamide] were, in that order, 0.1 to 50 nM and 351 to 1000 nM.
As for `CCCCCCCCNC(=O)N[C@@H](CNC(=O)c1ccc(C(=O)N2C[C@@H](C(=O)N[C@H]3C[C@@H]3c3ccccc3)[C@H](C(=O)N[C@H]3C[C@@H]3c3ccccc3)C2)cc1)C(=O)NCCCCCC` [Compound 211, (3S,4S)-1-(4-(((S)-3-(hexylamino)-2-(3-octylureido)-3-oxopropyl)carbamoyl)benzoyl)-N3,N4-bis((1S,2R)-2-phenylcyclopropyl)pyrrolidine-3,4-dicarboxamide], the values for the EC50 on TLR2 [1] and at TLR2 [2] were 0.1 to 50 nM and above 1000 nM, respectively.
The like results for `CCCCCCCCCOC(=O)N[C@@H](CNC(=O)c1ccc(C(=O)N2C[C@@H](C(=O)N[C@H]3C[C@@H]3c3ccccc3)[C@H](C(=O)N[C@H]3C[C@@H]3c3ccccc3)C2)cc1)C(=O)NCCCCCC` [Compound 229, nonyl ((S)-3-(4-((3S,4S)-3,4-bis(((1S,2R)-2-phenylcyclopropyl)carbamoyl)pyrrolidine-1-carbonyl)benzamido)-1-(hexylamino)-1-oxopropan-2-yl)carbamate] were, in that order, 0.1 to 50 nM and above 1000 nM.
On to `CCCCCCCCCCCCCOC(=O)N[C@H]1CN(C(=O)c2ccc(C(=O)N3C[C@@H](C(=O)N[C@H]4C[C@@H]4c4ccccc4)[C@H](C(=O)N[C@H]4C[C@@H]4c4ccccc4)C3)cc2)C[C@@H]1OC` [Compound 217, tridecyl ((3S,4S)-1-(4-((3S,4S)-3,4-bis(((1S,2R)-2-phenylcyclopropyl)carbamoyl)pyrrolidine-1-carbonyl)benzoyl)-4-methoxypyrrolidin-3-yl)carbamate], for which the figures for the EC50 at TLR2 [1] and on TLR2 [2] were 0.1 to 50 nM and above 1000 nM, respectively.
Consider `CO[C@H]1CN(C(=O)c2ccc(C(=O)N3C[C@@H](C(=O)N[C@H]4C[C@@H]4c4ccccc4)[C@H](C(=O)N[C@H]4C[C@@H]4c4ccccc4)C3)cc2)C[C@@H]1NC(=O)N[C@H]1C[C@@H]1c1ccccc1` [Compound 224, (3S,4S)-1-(4-((3S,4S)-3-methoxy-4-(3-((1S,2R)-2-phenylcyclopropyl)ureido)pyrrolidine-1-carbonyl)benzoyl)-N3,N4-bis((1S,2R)-2-phenylcyclopropyl)pyrrolidine-3,4-dicarboxamide], for which the EC50 on TLR2 [1] and at TLR2 [2] was above 1000 nM throughout.
As for `CCCCCCC(=O)N[C@@H](CNC(=O)c1ccc(C(=O)N2C[C@@H](C(=O)N[C@H]3C[C@@H]3c3ccccc3)[C@H](C(=O)N[C@H]3C[C@@H]3c3ccccc3)C2)cc1)C(=O)NCc1ccc(F)cc1` [Compound 128, (3S,4S)-1-(4-(((S)-3-((4-fluorobenzyl)amino)-2-heptanamido-3-oxopropyl)carbamoyl)benzoyl)-N3,N4-bis((1S,2R)-2-phenylcyclopropyl)pyrrolidine-3,4-dicarboxamide], on TLR2 [1], the EC50 is above 1000 nM.
The same measure, in the same setting: the same measure for `CCCCCCCCN1C(=O)N(Cc2ccc(C(=O)N3C[C@@H](C(=O)N[C@H]4C[C@@H]4c4ccccc4)[C@H](C(=O)N[C@H]4C[C@@H]4c4ccccc4)C3)cc2)C[C@@H]1C(=O)NCCCCCC` [Compound 168, (3S,4S)-1-(4-(((R)-4-(hexylcarbamoyl)-3-octyl-2-oxoimidazolidin-1-yl)methyl)benzoyl)-N3,N4-bis((1S,2R)-2-phenylcyclopropyl)pyrrolidine-3,4-dicarboxamide]: 51 to 350 nM; for `CCCCCCCCCCCCCNC(=O)N[C@@H]1CN(C(=O)c2ccc(C(=O)N3C[C@@H](C(=O)N[C@H]4C[C@@H]4c4ccccc4)[C@H](C(=O)N[C@H]4C[C@@H]4c4ccccc4)C3)cc2)C[C@@H]1OC` [Compound 208, (3S,4S)-1-(4-((3S,4R)-3-methoxy-4-(3-tridecylureido)pyrrolidine-1-carbonyl)benzoyl)-N3,N4-bis((1S,2R)-2-phenylcyclopropyl)pyrrolidine-3,4-dicarboxamide]: 0.1 to 50 nM.
`CCCCCCCCCCCCCCCN1C[C@@H](NC(=O)c2ccc(C(=O)N3C[C@@H](C(=O)N[C@H]4C[C@@H]4c4ccccc4)[C@H](C(=O)N[C@H]4C[C@@H]4c4ccccc4)C3)cc2)CCC1=O` [Compound 180, (3S,4S)-1-(4-(((S)-6-oxo-1-pentadecylpiperidin-3-yl)carbamoyl)benzoyl)-N3,N4-bis((1S,2R)-2-phenylcyclopropyl)pyrrolidine-3,4-dicarboxamide] returned an EC50 at TLR2 [1] above 1000 nM.
`CCCCCCCCCCCCCCNC(=O)[C@@H]1CN(C(=O)c2ccc(C(=O)N3C[C@@H](C(=O)N[C@H]4C[C@@H]4c4ccccc4)[C@H](C(=O)N[C@H]4C[C@@H]4c4ccccc4)C3)cc2)C[C@@H]1OC` (single isomer, unassigned) [Compound 107, (3S,4S)-1-(4-((3R*,4R*)-3-methoxy-4-(tetradecylcarbamoyl)pyrrolidine-1-carbonyl)benzoyl)-N3,N4-bis((1S,2R)-2-phenylcyclopropyl)pyrrolidine-3,4-dicarboxamide] came in with a concentration giving a half-maximal response (EC50) on TLR2 [1] of 351 to 1000 nM.

Source of the values: patent US11951094B2, “TLR2 modulator compounds, pharmaceutical compositions and uses thereof” (Axial Therapeutics, Inc., priority 2020, dated 2024).
